Consider two molecules from patent publication US20040162428A1, “6-(2,6-difluorophenyl)-triazolopyrimidines as fungicides” (priority 2001, published 2004).

This assay deals with Botrytis cinerea. As to the kind of experiment: Comparison trial: control of gray mould (Botrytis cinerea) on fruit slices of green pepper. Type of assay: in vivo. The note with it: green pepper fruit slices sprayed with 500 ppm, inoculated after 2 hours, incubated four days at 18-20° C.; untreated infected to 100%. From the text: The active compounds, separately or together, were formulated as a 10% emulsion in a mixture of 70% by weight of cyclohexanone, 20% by weight of Nekanil® LN (Lutensol® AP6, wetting agent having emulsifying and dispersant action based on ethoxylated alkylphenols) and 10% by weight of Wettol® EM (nonionic emulsifier based on ethoxylated castor oil) and diluted with water to the desired concentration. Comparison trial—Control of gray mould (Botrytis cinerea) on fruit slices of green pepper Fruit slices of green pepper were sprayed to run-off with an aqueous suspension, containing the concentration of active ingredient or their mixture mentioned in the table below, prepared from a stock solution containing 10% of the active ingredient; 85% cyclohexanone and 5% emulsifier. After 2 hours the sprayed-on layer had dried, the disks were inoculated with a spore suspension of Botrytis cinerea containing 1,7×10^6 spores per ml in 2 wt. % aqueous biomalt solution. The infected fruit slices were then incubated in chambers with high humidity for four days at 18-20° C. The fruit slice area under fungal attack was then assessed visually in percent.

For `CC(Nc1c(-c2c(F)cccc2F)c(Cl)nc2ncnn12)C(F)(F)F` (centres unmarked) [B], the “infection (fruit slice area under fungal attack in percent)” value is given as 20%. In the case of `Fc1cccc(F)c1-c1c(Cl)nc2ncnn2c1NCC(F)(F)F` [A] it was 100%.
